Experimental findings from ChEMBL document CHEMBL3045187, “Chemical weed control in seedbed sown onion (Allium cepa L.)” (Crop Prot, 2006) are described below.

In data set [1] the test system is Cyperus rotundus. As to the kind of experiment: Herbicidal activity against Cyperus rotundus assessed as total dry weight at 0.225 kg/ha applied as spray during post-emergence (reference value: 4.1 MT/ha). The class given is functional.
The subject of data set [2] is Allium cepa. As to the kind of experiment: Phytotoxicity in Allium cepa (onion) seedling assessed as total fresh weight at 0.225 kg/ha applied as spray during post-emergence (reference value: 7.71 MT/ha). The class given is organism-based. Conditions: in vivo, other.
Data set [3] has as its system Chenopodiastrum murale. As to the kind of experiment: Herbicidal activity against Chenopodium murale assessed as total dry weight at 0.225 kg/ha applied as spray during postemergence (reference value: 4.1 MT/ha). The class given is functional.
Data set [4] relates to Cyperus rotundus. As to the kind of experiment: Herbicidal activity against Cyperus rotundus assessed as total fresh weight at 0.225 kg/ha applied as spray during post-emergence (reference value: 23.6 MT/ha). The format is functional.
The subject of data set [5] is Malva sylvestris. As to the kind of experiment: Herbicidal activity against Malva sylvestris assessed as total fresh weight at 0.225 kg/ha applied as spray during post-emergence (reference value: 23.6 MT/ha). The format is functional.
The subject of data set [6] is Chenopodiastrum murale. The data set can be described thus: Herbicidal activity against Chenopodium murale assessed as total fresh weight at 0.225 kg/ha applied as spray during postemergence (reference value: 23.6 MT/ha). The format is functional.
In data set [7] the test system is Malva sylvestris. The data set can be described thus: Herbicidal activity against Malva sylvestris assessed as total dry weight at 0.225 kg/ha applied as spray during post-emergence (reference value: 4.1 MT/ha). The format is functional.
Data set [8] deals with Cyperus rotundus. As to the kind of experiment: Herbicidal activity against Cyperus rotundus assessed as total dry weight at 1.5 kg/ha applied as spray before seed sowing (reference value: 4.1 MT/ha). The class given is functional. Conditions: pooled result: one value given for 3 cell lines, strains, targets or settings.
Data set [9] concerns Allium cepa. The data set can be described thus: Phytotoxicity in Allium cepa (onion) seedling assessed as total fresh weight at 1.5 kg/ha applied as spray before seed sowing (reference value: 7.71 MT/ha). Conditions: in vivo, other. The format is organism-based.
The test system of data set [10] is Cyperus rotundus. The data set can be described thus: Herbicidal activity against Cyperus rotundus assessed as total fresh weight at 1.5 kg/ha applied as spray before seed sowing (reference value: 23.6 MT/ha). The format is functional. The following applies: pooled result: one value given for 3 cell lines, strains, targets or settings.
Data set [11] concerns Chenopodiastrum murale. The data set can be described thus: Herbicidal activity against Chenopodium murale assessed as total fresh weight at 0.1 kg/ha applied as spray during postemergence (reference value: 23.6 MT/ha). The class given is functional.
For data set [12], the system named is Malva sylvestris. As to the kind of experiment: Herbicidal activity against Malva sylvestris assessed as total fresh weight at 0.1 kg/ha applied as spray during post-emergence (reference value: 23.6 MT/ha). The class given is functional.
The subject of data set [13] is Allium cepa. The data set can be described thus: Phytotoxicity in Allium cepa (onion) seedling assessed as total fresh weight at 0.1 kg/ha applied as spray during postemergence (reference value: 7.71 MT/ha). The format is organism-based. The following applies: in vivo, other.
Data set [14] has as its system Cyperus rotundus. As to the kind of experiment: Herbicidal activity against Cyperus rotundus assessed as total dry weight at 0.1 kg/ha applied as spray during post-emergence (reference value: 4.1 MT/ha). The class given is functional.
Data set [15] concerns Cyperus rotundus. As to the kind of experiment: Herbicidal activity against Cyperus rotundus assessed as total fresh weight at 0.1 kg/ha applied as spray during post-emergence (reference value: 23.6 MT/ha). The class given is functional.
The subject of data set [16] is Malva sylvestris. As to the kind of experiment: Herbicidal activity against Malva sylvestris assessed as total dry weight at 0.1 kg/ha applied as spray during post-emergence (reference value: 4.1 MT/ha). The format is functional.
The subject of data set [17] is Chenopodiastrum murale. As to the kind of experiment: Herbicidal activity against Chenopodium murale assessed as total dry weight at 0.1 kg/ha applied as spray during postemergence (reference value: 4.1 MT/ha). The format is functional.
In data set [18] the test system is Allium cepa. The data set can be described thus: Phytotoxicity in Allium cepa (onion) seedling assessed as total fresh weight at 0.02 kg/ha applied as spray during postemergence (reference value: 7.71 MT/ha). The class given is organism-based. Conditions: in vivo, other.
Data set [19] has as its system Chenopodiastrum murale. The data set can be described thus: Herbicidal activity against Chenopodium murale assessed as decrease in total dry weight at 0.02 kg/ha applied as spray during postemergence relative to weed-infested control. The class given is functional. Further details: scale not given: the % may be the effect or the level left.
The subject of data set [20] is Cyperus rotundus. As to the kind of experiment: Herbicidal activity against Cyperus rotundus assessed as decrease in total dry weight at 0.02 kg/ha applied as spray during post-emergence relative to weed-infested control. The format is functional. Set-up: scale not given: the % may be the effect or the level left.
Data set [21] deals with Chenopodiastrum murale. The data set can be described thus: Herbicidal activity against Chenopodium murale assessed as total fresh weight at 0.02 kg/ha applied as spray during postemergence (reference value: 23.6 MT/ha). The format is functional.
In data set [22] the test system is Malva sylvestris. The data set can be described thus: Herbicidal activity against Malva sylvestris assessed as decrease in total dry weight at 0.02 kg/ha applied as spray during post-emergence relative to weed-infested control. The class given is functional. Further details: scale not given: the % may be the effect or the level left.
Data set [23] concerns Cyperus rotundus. As to the kind of experiment: Herbicidal activity against Cyperus rotundus assessed as total fresh weight at 0.02 kg/ha applied as spray during post-emergence (reference value: 23.6 MT/ha). The format is functional.
For data set [24], the system named is Malva sylvestris. As to the kind of experiment: Herbicidal activity against Malva sylvestris assessed as total fresh weight at 0.02 kg/ha applied as spray during post-emergence (reference value: 23.6 MT/ha). The format is functional.

Turning to `C[C@@H](Oc1ccc(Oc2ccc(C(F)(F)F)cn2)cc1)C(=O)O` [FLUAZIFOP-P], the Activity in data set [1] amounted to 2.9 MT/ha; in [2] it was 9.18 MT/ha; in data set [3], 2.9 MT/ha; in data set [4] it was 15.6 MT/ha; in [5], 15.6 MT/ha; in data set [6] it was 15.6 MT/ha. In addition, the Activity in [7] was 2.9 MT/ha.
`C#CC(C)(C)NC(=O)c1cc(Cl)cc(Cl)c1` [PRONAMIDE]: the Activity came to 3.61 MT/ha in data set [8], 6.67 MT/ha in [9] and 20.5 MT/ha in data set [10].
As to `CCOC(=O)C(C)Oc1ccc(Oc2cnc3cc(Cl)ccc3n2)cc1` (centres undefined) [QUIZALOFOP ETHYL ESTER], the Activity in [11] is on record as 10.7 MT/ha; in [12] it was 10.7 MT/ha; in data set [13], 10.11 MT/ha; in [14], 2.52 MT/ha; in data set [15], 10.7 MT/ha; in [16] it was 2.52 MT/ha. Also, the Activity in data set [17] worked out at 2.52 MT/ha.
With `C[n+]1ccc(-c2cc[n+](C)cc2)cc1` [PARAQUAT], the Activity in data set [18] is reported as 14.11 MT/ha; in [19], 60%; in [20], 60%; in data set [21], 8.2 MT/ha; in [22], 60%; in data set [23] it was 8.2 MT/ha. The Activity in data set [24] is reported as 8.2 MT/ha.
